# pKd: −log10 of the molar value. Ends that are not written are not given here.
# Tests used:
# HER-2 = target: T1, HER-2 (Homo sapiens, UniProt P04626); assay: HER-2 phosphorylation assay in BT-474 cells, peptides (Duoset IC human phospho-ErbB2); format: cell-based; conditions: peptides then HRG 10 min
# T1 construct: The human breast tumor cell lines BT-474 were purchased from American Type Culture Collection; host or cells: BT-474
# Method: Phosphorylation assay. 1×10^6 BT-474 cells were plated in each well of a six well plate and incubated overnight at 37° C. Culture medium was removed and the cell layer washed once with PBS low score (1% FCS). Culture medium was added to the wells and plates incubated overnight. Cells were washed and 50 ug of peptides, anti-peptide Abs and controls in binding buffer (0.2% w/v BSA, RPMI 1640 medium with 10 mM HEPES (pH 7.2) was added to the wells and incubated at room temperature for 1 h. HRG (5 nM/well) was added and the incubation continued for 10 min. Binding buffer was removed and the cell layer washed once with PBS before adding 1 ml of RIPA lysis buffer (Santa Cruz Biotechnology, Santa Cruz, Calif.). Plates were rocked at 4° C. for 2 h. Lysates were removed, spun at 13000×g and supernatants collected. Protein concentration of each sample was measured by Coomassie plus protein assay reagent kit and lysates were stored at −80° C. Phosphorylation was determined by Duoset IC for human phosphor-ErbB2 according to the manufacturer's directions (RSD Systems).
# Peptide inhibition of Phosphorylation. The main mode of action of Pertuzumab is to inhibit phosphorylation. This is due to the fact that it sterically blocks the dimerization domain of HER-2 thereby preventing the formation of dimers with other HER receptors and thus interrupting downstream signaling. […]
# [1] = system: TS/A cells (HER-2 negative); assay: Proliferation assay (MTT) of TS/A cells in presence of HRG; format: cell-based, mouse; conditions: HER-2 negative cell line
# Method: Proliferation assay. BT-474, SK-BR-3, MDA-468 and TS/A cells (1×10^4 were plated in 96-well flat-bottom plates overnight. Growth medium was replaced with low sera (1% FCS) medium and the cells were incubated overnight. Media were removed from the wells and replaced with low sera medium containing HER-2 and VEGF mimic peptides at concentrations ranging from 25-150 ug/ml and plates were incubated an additional 1 h at 37° C. before adding 10 ng/ml HRG in 1% medium. Plates were incubated for an additional 72 h at 37° C. before adding MTT (5 mg/ml) to each well. Plates were incubated 2 h at 37° C., and 1000 of extraction buffer (20% SDS, 50% dimethylformamide (pH 4.7)) was added to each well. Plates incubated overnight at 37° C. and read on an ELISA reader at 570 nm with 655 nm background subtraction Inhibition percentage was calculated as 100%×(Untreated cells-Peptide treated cells)/(Untreated cells).
# Antiproliferative effects of peptides. The antiproliferative effects of the peptides were tested using four different cell lines (Bt-474 and SK-BR-3: HER-2^high, MDA-468: HER-2^low and TS/A: HER-2^negative) (FIGS. 13A-13D) in the presence of HRG to activate the HER-3 receptor. […] The cells were incubated with the peptides before being exposed to HRG.
# HUVEC = assay: Scratch wound assay (HUVEC migration); format: cell-based, human; conditions: stimulated with 50 ng/ml rhVEGF, 16 h
# Method: Scratch Wound Assay. HUVEC were cultured on 0.1% gelatin coated 24-well plates. Confluent cells were incubated overnight with starving media, then they were scraped using sterilized 200-μl pipette tips and stimulated with 50 ng/ml of rhVEGF with or without VEGF mimic peptides for 16 h at 37° C. Cells were fixed and images were captured immediately at 40× magnification from light microscopy and cells that migrated to the scraped area were counted using imageJ software.
# VEGF mimic peptides inhibit cell migration in a Scratch Wound Assay. New blood vessel formation requires that the endothelial cells migrate towards the sources of growth factor. […] We used the scratch wound assay with HUVEC to observe the ability of the VEGF mimic peptides in inhibiting endothelial cell migration. […] Growth conditions (medium supplemented with 20% FBS and endothelial cell growth supplements).
# [2] = target: T2, extracellular domain of VEGFR-2 (KDR-Fc) (Homo sapiens, UniProt P35968); assay: Surface plasmon resonance (BIAcore 3000): KDR-Fc injected over immobilized VEGF mimic peptides; conditions: peptide immobilized on CM5 chip, 1:1 (Langmuir) model, read-out: equilibrium binding constant (KD), binding affinity
# T2 construct: the extracellular domain of VEGFR-2(KDR-Fc) was injected as ligand; Fc; purchased R&D System
# T2 sequence (P35968 20-764 limits assumed): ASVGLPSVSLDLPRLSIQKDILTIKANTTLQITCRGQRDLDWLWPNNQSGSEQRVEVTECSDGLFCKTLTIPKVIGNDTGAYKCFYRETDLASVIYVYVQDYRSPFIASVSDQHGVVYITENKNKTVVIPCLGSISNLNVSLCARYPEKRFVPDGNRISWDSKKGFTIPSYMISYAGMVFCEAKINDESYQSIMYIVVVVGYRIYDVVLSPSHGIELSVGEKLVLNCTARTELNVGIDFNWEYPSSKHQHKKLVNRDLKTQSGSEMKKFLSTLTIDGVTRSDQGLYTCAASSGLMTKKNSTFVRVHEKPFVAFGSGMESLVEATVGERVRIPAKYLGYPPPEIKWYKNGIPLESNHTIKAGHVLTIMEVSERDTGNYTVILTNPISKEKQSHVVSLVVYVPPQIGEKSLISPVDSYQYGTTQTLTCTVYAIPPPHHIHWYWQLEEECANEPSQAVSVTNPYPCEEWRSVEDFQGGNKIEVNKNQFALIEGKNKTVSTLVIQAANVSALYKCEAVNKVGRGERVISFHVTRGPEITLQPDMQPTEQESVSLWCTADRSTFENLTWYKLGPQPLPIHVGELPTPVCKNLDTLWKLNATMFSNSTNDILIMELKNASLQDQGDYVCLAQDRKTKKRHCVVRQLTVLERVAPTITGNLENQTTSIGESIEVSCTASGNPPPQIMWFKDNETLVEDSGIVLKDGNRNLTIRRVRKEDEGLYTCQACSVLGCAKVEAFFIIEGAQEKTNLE
# Method: Surface Plasma Resonance. Binding assays were performed using a Biacore 3000 instrument (Pharmacia Bio-sensor, Uppsala, Sweden). The experiments were performed at room temperature using HBS-EP buffer (25 mM HEPES, pH 7.4, […], 3.4 mM EDTA, and 0.005% surfactant P20). Peptides were coupled onto CM5 chip surfaces at 10 μL/min using a standard amine coupling protocol with EDC (N-ethyl-N′-[dimethylaminopropyl]carbodiimide)/NHS (N-hydroxysuccinimide). KDR-Fc (R&D System) at several concentrations in HBS-EP buffer. Was injected at a flow rate of 10 μL/min. Data analysis was performed with BIAsimulation software version 3.1 (Pharmacia Biosensor). […] To obtain measurement of anti-peptides binding affinities similar a experiment was carried out, but rhVEGF was immobilized onto CM5 chip surface and anti-peptides were injected at several concentrations.
# Conformational VEGF mimic peptide binds to VEGFR-2. Binding assay was carried out using BIAcore 3000 instrument. Designed VEGF mimic peptide VEGF-P3 (NC) and (CYC) were immobilized onto chip CM5 and the extracellular domain of VEGFR-2(KDR-Fc) was injected as ligand. […] Global analysis was performed with data points fitting to a simple 1:1 (Langmuir) binding model. The equilibrium binding constant (KD) takes Ka and Kd values in consideration and represents the binding affinity. […]
# VEGFR-2 = target: T3, VEGFR-2 (Homo sapiens, UniProt P35968); assay: VEGFR-2 phosphorylation in 293/KDR cells, quantified with Human Phospho-VEGF R2/KDR DuoSet IC kit; format: cell-based; conditions: 293/KDR cells stimulated with rhVEGF; control (only rhVEGF) taken as 100%
# T3 construct: host or cells: 293/KDR cells
# T3 sequence (P35968 20-1356): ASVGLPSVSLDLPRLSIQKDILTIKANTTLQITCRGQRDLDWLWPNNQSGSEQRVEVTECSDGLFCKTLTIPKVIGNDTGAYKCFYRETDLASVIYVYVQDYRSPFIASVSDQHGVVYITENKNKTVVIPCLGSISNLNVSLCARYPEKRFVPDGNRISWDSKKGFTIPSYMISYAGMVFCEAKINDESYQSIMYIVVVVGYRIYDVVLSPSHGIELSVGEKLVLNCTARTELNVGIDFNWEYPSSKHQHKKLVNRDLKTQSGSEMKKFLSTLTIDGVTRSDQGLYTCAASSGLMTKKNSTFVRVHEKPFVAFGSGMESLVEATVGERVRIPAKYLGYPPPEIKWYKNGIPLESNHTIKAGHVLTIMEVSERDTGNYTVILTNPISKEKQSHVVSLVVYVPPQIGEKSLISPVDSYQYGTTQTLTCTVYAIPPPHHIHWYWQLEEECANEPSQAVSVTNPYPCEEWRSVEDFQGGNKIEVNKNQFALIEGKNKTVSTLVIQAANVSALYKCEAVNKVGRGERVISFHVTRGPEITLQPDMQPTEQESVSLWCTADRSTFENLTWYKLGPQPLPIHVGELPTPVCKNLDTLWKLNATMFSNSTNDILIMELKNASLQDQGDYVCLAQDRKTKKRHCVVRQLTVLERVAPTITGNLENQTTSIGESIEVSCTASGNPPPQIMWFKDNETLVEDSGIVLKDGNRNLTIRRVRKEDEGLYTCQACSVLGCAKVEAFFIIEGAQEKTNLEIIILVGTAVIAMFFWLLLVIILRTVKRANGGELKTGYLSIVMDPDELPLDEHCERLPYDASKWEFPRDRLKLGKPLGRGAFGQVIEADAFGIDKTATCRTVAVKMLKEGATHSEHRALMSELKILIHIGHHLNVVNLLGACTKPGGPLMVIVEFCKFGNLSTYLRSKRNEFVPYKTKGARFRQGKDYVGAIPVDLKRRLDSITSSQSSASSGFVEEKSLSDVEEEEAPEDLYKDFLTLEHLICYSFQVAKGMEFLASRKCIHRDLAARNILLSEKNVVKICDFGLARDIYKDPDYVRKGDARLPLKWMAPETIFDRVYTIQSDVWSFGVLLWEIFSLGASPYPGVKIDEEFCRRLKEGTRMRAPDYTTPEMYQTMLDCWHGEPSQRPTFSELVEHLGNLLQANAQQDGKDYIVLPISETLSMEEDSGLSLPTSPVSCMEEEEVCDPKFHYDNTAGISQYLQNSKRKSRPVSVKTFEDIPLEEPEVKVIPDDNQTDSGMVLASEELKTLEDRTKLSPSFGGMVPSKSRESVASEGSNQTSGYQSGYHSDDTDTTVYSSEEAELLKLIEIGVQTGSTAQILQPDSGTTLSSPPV
# Method: 293/KDR cells (5×10^5 cells/well) were seeded on 6-well plates in DMEM medium supplemented with 10% FBS. After overnight incubation in starving medium (no FBS) cells were stimulated with rhVEGF for 5 min. Cells were washed in cold PBS supplemented with 1 mM sodium orthovanadate and harvested into RIPA lysis buffer (Santa Cruz Biotechnology, Santa Cruz, Calif.) and incubated on ice for 30 min and cell lysate was collected after centrifugation at 13000 rpm for 10 min. Cell lysate was kept at −80° C. until used for Western blotting detecting phosphoro-KDR and total KDR as described above.
# Conformational VEGF mimic peptide prevents VEGFR-2 phosphorylation. VEGFR-2 (also known as […] or KDR) has been characterized as a tyrosine receptor type III. VEGFR-2 activation is promoted by dimerization upon VEGF binding. VEGFR-2 contains several tyrosine residues that can be phosphorylated, triggering several pathways such as proliferation, migration and survival in the endothelial cells. […] All three VEGF mimic peptides were able to decrease the level of receptor phosphorylation (FIG. 5); however, the inhibitory effect was unable to be quantified, due to the limited detection of VEGFR-2 in the Western blotting. […] The percentage of inhibition was calculated assuming the phosphorylation level of control (only rhVEGF) was 100% and the results are represented in FIG. 6B.
# [3] = Active immunization of rabbits, antibody titers by ELISA; format: in vivo, rabbit; conditions: outbred rabbits, MVF chimeric peptide
# Method: Active immunization and Ab purification. Mice and rabbits were immunized subcutaneously at multiple sites with a total of 1 mg (rabbits) or 100 μg (mice) of peptide dissolved in ddH2O emulsified (1:1) in Montanide ISA720 vehicle (Seppic) with 100 μg of N-acetylglucosamine-3-yl-acetyl-1-alanyl-d-isoglutamine (nor-MDP). Balb/c mice. Rabbits and mice were boosted with the respective doses at 3 week intervals. Rabbit blood was collected via the central auricular artery and sera tested for antibody titers. Anti-peptide antibodies were purified by affinity chromatography using a Protein A/G column (Pierce) from high titer antibody sera.
# ELISA. Antibody titers were determined as previously described and it is defined as the reciprocal of the highest serum dilution with an absorbance of 0.2 or greater after subtracting the background.
# Antigenicity and Immunogenicity of Peptides. Earlier studies in our lab have shown that the MVF-HER-2-266 was highly immunogenic in both rabbits and mice. […] We had to do up to six immunizations with the D-amino acid peptide before we could obtain higher abs titers while with the L-amino acids only four immunization are enough to produce higher titers. We therefore used the abs raised against these peptides to test their effects on cancer cells in vitro.
molecule,measurement,setting,value
LHCPALVTYNTDTFESMPNPEGRYTFGASCV [HER-2-266-296],inhibition rate of HER-2 phosphorylation,HER-2,38%
same,antiproliferative effect on TS/A cells,[1],inhibitory effects
CC(C)c1cc(/C=C(\C#N)C(=O)NCCCc2ccccc2)cc(C(C)C)c1O [SU1498],inhibition of HUVEC migration,HUVEC,approximately 50%
ITMQIMRIKPHQGQHIGEMSF [VEGF 102-122],pKd,[2],7.35
same,inhibition of VEGFR-2 phosphorylation,VEGFR-2,4%
NH2-D[FSMECIMIKPHQGQHIGCQMTI]-COOH [VEGF-P4-CYC],immunogenicity (antibody titers),[3],immunogenic
same,inhibition rate of HER-2 phosphorylation,HER-2,39%
